Test results from paper PMC9318203, “Squaramide-Tethered Sulfonamides and Coumarins: Synthesis, Inhibition of Tumor-Associated CAs IX and XII and Docking Simulations” (International Journal of Molecular Sciences, 2022).

How the values were obtained:
[1] = system: A549, HBL-100, HeLa, SW1573, T-47D, WiDr; test: antiproliferative assay (NCI protocol), panel of six human tumor cell lines; assay type: cell-based; details: normoxic conditions
Method: (§1) Some representative compounds (5a–e, 16b, 16e–i) were also tested as potential antiproliferative agents against a panel of six human tumor cell lines: A549 (non-small cell lung), HBL-100 (breast), HeLa (cervix), SW1573 (non-small cell lung), T-47D (breast), WiDr (colon). Unfortunately, no relevant activity was found for the tested compounds.
(§2) Minor modifications of the US National Cancer Institute (NCI) protocol were used.

hCA XII = target: T1, hCA XII (Homo sapiens, UniProt O43570); test: stopped-flow CO2 hydrase assay, hCA XII; assay type: biochemical
T1 construct: made in house
Method: (§3) For that purpose, the stopped-flow CO2 hydration assay was used (Table 1).
(§4) The inhibitory properties of title compounds against CAs were determined using the stopped-flow CO2 hydrase assay, as previously reported.

hCA IX = target: T2, hCA IX (Homo sapiens, UniProt Q16790); test: stopped-flow CO2 hydrase assay, hCA IX; assay type: biochemical
T2 construct: made in house
Method: as §3, §4

hCA I = target: T3, hCA I (Homo sapiens, UniProt P00915); test: stopped-flow CO2 hydrase assay, hCA I; assay type: biochemical
T3 construct: made in house
Method: as §3, §4

hCA II = target: T4, hCA II (Homo sapiens, UniProt P00918); test: stopped-flow CO2 hydrase assay, hCA II; assay type: biochemical
T4 construct: made in house
Method: as §3, §4

[2] = system: A549 (non-small cell lung); test: antiproliferative assay (NCI protocol), A549; assay type: cell-based; details: Homo sapiens; line A549; normoxic conditions
Method: as §1, §2

[3] = sulfonamido-containing squaramides, mean from 3 assays, stopped flow
[4] = coumarin-containing squaramides, incubation time 6 h, mean from three assays

T1 sequence (O43570 25-354): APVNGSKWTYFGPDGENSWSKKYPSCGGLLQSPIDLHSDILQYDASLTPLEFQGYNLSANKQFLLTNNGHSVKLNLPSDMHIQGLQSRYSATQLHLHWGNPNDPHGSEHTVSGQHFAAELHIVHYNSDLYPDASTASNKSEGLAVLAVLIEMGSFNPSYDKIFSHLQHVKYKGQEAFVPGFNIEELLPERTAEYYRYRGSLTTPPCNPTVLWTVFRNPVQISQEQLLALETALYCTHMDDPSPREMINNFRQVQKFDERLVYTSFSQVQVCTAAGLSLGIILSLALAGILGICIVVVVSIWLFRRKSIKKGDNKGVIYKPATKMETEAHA
T3 sequence (P00915 whole entry): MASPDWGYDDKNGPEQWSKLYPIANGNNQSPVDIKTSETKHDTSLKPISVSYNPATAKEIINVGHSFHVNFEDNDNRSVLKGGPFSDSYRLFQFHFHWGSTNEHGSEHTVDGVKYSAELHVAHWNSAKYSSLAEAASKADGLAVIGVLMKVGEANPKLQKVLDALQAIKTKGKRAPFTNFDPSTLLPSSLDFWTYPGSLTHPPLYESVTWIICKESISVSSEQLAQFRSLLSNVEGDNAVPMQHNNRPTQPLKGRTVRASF

Compound	Ki (hCA XII; [4]) [nM]	melting point [°C]	Ki (hCA IX; [4]) [nM]	Ki (hCA I; [4]) [nM]	Ki (hCA II; [4]) [nM]	GI50 ([1]; all the cell lines) [nM]	also measured
NS(=O)(=O)c1ccc(CCNc2c(NCCc3ccc(S(N)(=O)=O)cc3)c(=O)c2=O)cc1 [Compound 6, 3,4-Bis[2′-(4″-sulfonamidophenyl)ethylamino]cyclobut-3-ene-1,2-dione]	–	–	–	–	–	> 100000	S.I. I/XII (hCA XII; Ki (CA I)/Ki (CA XII)): 0.49; S.I. II/XII (hCA XII; Ki (CA II)/Ki (CA XII)): 0.64; Ki (hCA XII; [3]): 87.8 nM; S.I. I/IX (hCA IX; Ki (CA I)/Ki (CA IX)): 0.52; S.I. II/IX (hCA IX; Ki (CA II)/Ki (CA IX)): 0.68; Ki (hCA IX; [3]): 83 nM; Ki (hCA I; [3]): 43.2 nM; Ki (hCA II; [3]): 56.2 nM
Cc1c(C)c2ccc(OCCCCCNc3c(Nc4ccc(F)cc4)c(=O)c3=O)cc2oc1=O [Compound 16l, 3-{[5′-(3″,4″-Dimethyl-2″-oxo-2″H-chromen-7″-yl)oxypentyl]amino}-4-(4‴-fluorophenylamino)cyclobut-3-ene-1,2-dione]	62.9	> 250	113	> 10000	> 10000	–	–
Cc1c(C)c2ccc(OCCCCCNc3c(Nc4ccc(I)cc4)c(=O)c3=O)cc2oc1=O [Compound 16o, 3-{[5′-(3″,4″-Dimethyl-2″-oxo-2″H-chromen-7″-yl)oxypentyl]amino}-4-(4‴-iodophenylamino)cyclobut-3-ene-1,2-dione]	50.8	> 250	92.1	> 10000	> 10000	–	–
O=c1cc(-c2ccccc2)c2ccc(OCCCCCNc3c(Nc4ccccc4)c(=O)c3=O)cc2o1 [Compound 16p, 3-Phenylamino-4-{[5′-(4″-Phenyl-2″-oxo-2″H-chromen-7″-yl)oxypentyl]amino}cyclobut-3-ene-1,2-dione]	87.9	209 to 210	267	> 10000	> 10000	–	fold decreased activity compared with 16b, CA XII (hCA XII; vs 16b): roughly 6.1 fold; fold decreased activity compared with 16b, CA IX (hCA IX; vs 16b): roughly 6.1 fold

More lines, in order of falling Ki (hCA XII; [4]), values ahead:

Ki (hCA XII; [4]) [nM]	melting point [°C]	Ki (hCA IX; [4]) [nM]	Ki (hCA I; [4]) [nM]	Ki (hCA II; [4]) [nM]	Compound	GI50 ([1]; all the cell lines) [nM]	also measured
43	> 250	96.6	> 10000	> 10000	Cc1c(C)c2ccc(OCCCCCNc3c(Nc4ccc(Cl)cc4)c(=O)c3=O)cc2oc1=O [Compound 16m, 3-[(4′-Chlorophenyl)amino]-4-{[5″-(3‴,4‴-dimethyl-2‴-oxo-2‴H-chromen-7‴-yl)oxypentyl]amino}cyclobut-3-ene-1,2-dione]	–	–
19.5	215 to 216	59.7	> 10000	> 10000	COc1ccc(Nc2c(NCCCCCOc3ccc4c(C)cc(=O)oc4c3)c(=O)c2=O)cc1 [Compound 16e, 3-[(4′-Methoxyphenyl)amino]-4-{[5″-(4‴-methyl-2‴-oxo-2‴H-chromen-7‴-yl)oxypentyl]amino}cyclobut-3-ene-1,2-dione]	> 100000	–
15.9	–	43.7	> 10000	> 10000	Cc1cc(=O)oc2cc(OCCCCCNc3c(Nc4ccc(F)cc4)c(=O)c3=O)ccc12 [Compound 16f, 3-[(4′-Fluorophenyl)amino]-4-{[5″-(4‴-methyl-2‴-oxo-2‴H-chromen-7‴-yl)oxypentyl]amino}cyclobut-3-ene-1,2-dione]	> 100000	–
14.3	> 250	44.1	> 10000	> 10000	Cc1cc(=O)oc2cc(OCCCCCNc3c(Nc4ccccc4)c(=O)c3=O)ccc12 [Compound 16b, 3-{[5′-((4″-Methyl-2″-oxo-2″H-chromen-7″-yl)oxy)pentyl]amino}-4-phenylaminocyclobut-3-ene-1,2-dione]	–	GI50 ([1]; the rest of the cell lines (other than A549)): > 100000 nM; GI50 [2]: 94000 ± 10000 nM
